Measured values published in the supplement of paper PMC8967900.

Experiments:
Test in all cases: selective drug sensitivity score (sDSS, relative to normal bone marrow) (sDSS (score)); higher = more potent and effective on the cell line relative to normal bone marrow cells
Details in all cases: 72 h
[1] = system: CCRF-CEM
[2] = system: HAL-01
[3] = system: KASUMI-10
[4] = system: KOPN-8
[5] = system: PEER
[6] = system: MN-60
[7] = system: NALM-6
[8] = system: COG-LL-332h
[9] = system: COG-LL-402h
[10] = system: RPMI-8402
[11] = system: COG-LL-394h
[12] = system: MOLT-14
[13] = system: MHH-CALL-4
[14] = system: KASUMI-9
[15] = system: ALL-PO
[16] = system: RCH-ACV
[17] = system: P12-ICHIKAWA
[18] = system: CCRF-HSB2
[19] = system: MOLT-4
[20] = system: COG-LL-317
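Further: ALL cell lines in 384-well plates, five doses spanning 10,000-fold, each plate scaled between vehicle and 100 µmol/L benzalkonium chloride controls, sDSS an adapted area-under-curve metric.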

Row | SMILES | selective drug sensitivity score [1] | selective drug sensitivity score [2] | selective drug sensitivity score [3] | selective drug sensitivity score [4] | selective drug sensitivity score [5] | selective drug sensitivity score [6] | selective drug sensitivity score [7] | selective drug sensitivity score [8] | selective drug sensitivity score [9] | selective drug sensitivity score [10] | selective drug sensitivity score [11] | selective drug sensitivity score [12] | selective drug sensitivity score [13] | selective drug sensitivity score [14] | selective drug sensitivity score [15] | selective drug sensitivity score [16] | selective drug sensitivity score [17] | selective drug sensitivity score [18] | selective drug sensitivity score [19] | selective drug sensitivity score [20]
1 | COC12C(COC(N)=O)C3=C(C(=O)C(C)=C(N)C3=O)N1CC1NC12 (stereo in doubt) [Mitomycin_C] (top concentration 10000 nM) | -2.86 | 0.74 | -2.86 | 4.24 | -2.86 | -2.86 | -2.86 | -2.86 | -2.86 | -2.86 | -2.86 | -2.86 | -1.66 | 4.04 | -0.76 | 4.84 | -2.86 | -2.86 | -2.86 | -2.66
2 | Cc1c(-c2c(-c3ccc(F)o3)sc3ncnc(O[C@H](Cc4ccccc4OCc4ccnn4CC(F)(F)F)C(=O)O)c23)ccc(OCCN2CCN(C)CC2)c1Cl (top concentration 1000 nM) | -0.24 | -7.74 | -2.64 | 13.4 | -0.14 | -7.74 | -3.44 | -5.84 | 6.06 | -4.54 | -4.54 | 3.06 | -4.64 | -1.84 | -7.74 | -6.54 | -5.84 | -5.14 | -2.84 | -2.84
3 | Cc1ncc(Cl)cc1NCc1ccc(C(=O)N[C@@H](CC2CCCC2)C(=O)NC2CC2)s1 (top concentration 5000 nM) | -0.94 | 1.16 | 2.46 | 2.96 | -0.24 | -0.94 | -0.94 | 1.86 | 13.1 | -0.94 | 1.36 | 2.96 | -0.94 | -0.84 | -0.94 | 1.46 | -0.94 | 0.66 | 3.26 | 18.9
4 | CCn1c(-c2nonc2N)nc2c(C#CC(C)(C)O)ncc(OC[C@H]3CCCNC3)c21 (top concentration 10000 nM) | 11.9 | -0.62 | 0.88 | 7.08 | 1.68 | 0.08 | 8.78 | 9.28 | 8.28 | 6.48 | 2.18 | 1.68 | 2.98 | 0.98 | 8.18 | 17.1 | 4.68 | 0.88 | 8.68 | 14.8
5 | CN(c1ncccc1CNc1nc(Nc2ccc3c(c2)CC(=O)N3)ncc1C(F)(F)F)S(C)(=O)=O (top concentration 10000 nM) | -0.28 | -0.18 | 6.62 | 1.02 | 7.22 | -1.08 | 5.22 | 2.02 | 2.42 | 1.52 | -0.08 | -0.08 | -0.78 | 0.12 | 6.62 | 3.62 | -0.08 | 1.42 | 1.02 | -1.28
6 | CNc1ncc2cc(-c3cc(NC(=O)NCCC(C)(C)C)c(F)cc3C)c(C)nc2n1 (top concentration 10000 nM) | 5.56 | 4.66 | 3.96 | 21.3 | 15 | -0.94 | 6.66 | 9.06 | 6.76 | 0.66 | 5.76 | 12.5 | 8.96 | 9.16 | 4.86 | 12.7 | 11 | 20.2 | 6.26 | -0.24
7 | C[C@@]1(C(=O)Nc2ccc(F)nc2)CCCN1c1nc(Nc2cc(C3CC3)n[nH]2)c2cccn2n1 (top concentration 10000 nM) | 11.8 | 2.58 | 4.68 | 4.68 | 11.2 | -4.62 | 4.08 | 10.5 | 8.18 | 5.58 | 5.98 | 12.7 | 4.58 | 8.08 | 13 | 6.08 | 11.3 | 12.1 | 8.68 | 12.5
8 | Cc1nc(Nc2n[nH]c3c2CN(C(=O)N[C@H](CN(C)C)c2ccccc2)C3(C)C)c2sccc2n1 (top concentration 10000 nM) | 6.98 | -10.5 | 1.68 | 18.3 | -3.12 | 5.08 | 1.18 | 7.58 | 6.18 | 6.38 | -7.92 | 7.18 | 0.88 | 11.6 | 5.58 | 22.7 | 3.68 | 11.1 | -1.22 | 18.6
9 | Cn1cc(-c2[nH]c3cc(NC(=O)[C@H](N)C4CCCCC4)cc4c3c2C=NNC4=O)cn1 (top concentration 10000 nM) | 6.08 | -6.52 | 5.88 | 7.38 | 5.68 | -1.82 | 6.28 | 4.98 | 7.08 | 9.68 | -0.72 | 2.68 | 0.88 | 7.88 | 9.28 | 11.5 | 7.38 | 6.98 | 3.38 | 6.08
10 | Cn1cc(-c2ccc(F)c(C(F)(F)F)c2)nc1C1CCN(c2ncnc3[nH]ncc23)CC1 (top concentration 10000 nM) | 0.86 | 1.66 | -0.14 | 9.76 | 1.66 | -0.14 | -0.14 | 1.56 | -0.14 | -0.14 | -0.14 | -0.14 | 1.86 | 0.66 | 0.66 | 8.26 | -0.14 | -0.14 | 0.36 | 1.76
11 | O=C(Nc1ccc2[nH]nc(-c3ccncc3)c2c1)[C@@H]1CCN(CC(=O)N2CCN(c3ccc(-c4ncccn4)cc3)CC2)C1 (top concentration 10000 nM) | -0.54 | 0.06 | -0.74 | 12.9 | 2.16 | -3.64 | 4.76 | -0.54 | 1.76 | -1.64 | -0.14 | 8.56 | 3.96 | 0.36 | 3.76 | -0.44 | 1.06 | 3.26 | -3.04 | -2.04
12 | CC(C)(C)c1cc(NC(=O)Nc2ccc(Oc3ccnc4[nH]c(=O)cnc34)cc2F)n(-c2ccccc2)n1 (top concentration 25000 nM) | -2.18 | 2.02 | 5.62 | 2.22 | 5.32 | 0.42 | -0.98 | 2.02 | -1.78 | -3.18 | 0.82 | -4.58 | 0.42 | -1.18 | 5.72 | 3.82 | -4.58 | 3.12 | -2.98 | -2.18
13 | Nc1ncnc2c1nc(N)n2[C@@H]1O[C@H](CO)[C@@H](O)[C@H]1O [8-amino-adenosine] (top concentration 50000 nM) | 6.48 | 7.08 | 3.28 | 7.48 | 5.98 | 1.58 | 6.68 | 3.18 | 5.78 | 0.18 | 6.58 | 5.18 | 2.18 | 7.08 | 5.48 | 6.68 | 0.38 | 6.98 | -2.52 | 3.28
14 | CC(C)[C@@H](CS(=O)(=O)C(C)C)N1C(=O)[C@@](C)(CC(=O)O)C[C@H](c2cccc(Cl)c2)[C@H]1c1ccc(Cl)cc1 [AMG-232] (top concentration 10000 nM) | -7.34 | 11 | 10.1 | 10.4 | -6.94 | 3.16 | 7.96 | 9.26 | 9.26 | -9.14 | 8.76 | 10.1 | 10.9 | 13.1 | -6.94 | 12.1 | -8.24 | 9.26 | 10.1 | 15.1
15 | CC(C)[C@H](C(=O)Nc1ccc(C(=O)NO)cc1)c1ccccc1 [AR-42] (top concentration 10000 nM) | 6.68 | 3.28 | 6.88 | 10.6 | 9.18 | 1.48 | 4.48 | 4.68 | 10.8 | 8.18 | 2.08 | 8.48 | 8.08 | 8.08 | 10.7 | 13.9 | 8.28 | 7.28 | 7.08 | 6.48
16 | O=C(Nc1c[nH]nc1-c1nc2ccc(CN3CCOCC3)cc2[nH]1)NC1CC1 [AT9283] (top concentration 1000 nM) | 12.5 | 1.92 | 8.42 | 10.3 | 15.9 | 1.02 | 6.82 | 11.7 | 7.72 | 4.32 | 1.02 | 13.8 | 4.92 | 10.7 | 6.32 | 6.02 | 13 | 11.4 | 3.72 | 14.2
17 | CCN(CCO)CCCOc1ccc2c(Nc3cc(CC(=O)Nc4cccc(F)c4)[nH]n3)ncnc2c1 [AZD1152-HQPA] (top concentration 1000 nM) | 16.9 | -4.46 | 16 | 12.1 | 21.8 | -2.46 | 8.94 | 21.6 | 18.4 | 13 | 3.24 | 17.8 | 2.04 | 17.1 | 7.64 | 14 | 19 | 23.5 | 13.5 | 19.8
18 | Cc1[nH]nc(C(F)(F)F)c1Cc1sc2c(c1C(=O)N1C[C@](C)(O)CO1)c(=O)n(C)c(=O)n2C(C)C [AZD3965] (top concentration 1000 nM) | 0.3 | 1 | 0 | 0 | 0 | 0.9 | 11.1 | 0 | 0 | 12.6 | 0 | 0 | 0 | 2.7 | 3.8 | 0 | 0 | 0 | 0 | 0.3
